Measurements from ChEMBL document CHEMBL1201862, “PubChem BioAssay data set” (2004).
One block for each compound: values may come before it. Calls of active or inactive are those of the source.

What was measured:
[1] = A549 cell cytotoxicity, dose response, cytotoxicity control, 24 h, CellTiter-Glo luminescence, cherry-picks (AID 1053115); assay type: functional, cell-based; conditions: A549, 24 h
[2] = SK-MEL-5 parental cell viability reduction, dose response, orthogonal assay for MITF inhibitor project, CellTiter-Glo luminescence, dry powder, set 8 (AID 651586); assay type: functional, cell-based
[3] = MITF Orthogonal Assay: MALME3 CTG Assay Measured in Cell-Based System Using Plate Reader - 2084-04_Inhibitor_Dose_DryPowder_Activity_Set6.; assay type: functional; conditions: MALME-3
[4] = TRPM1 promoter luciferase reporter signal decrease, dose response, MITF inhibitor project, cell-based, SK-MEL-5, dry powder, set 9 (AID 651588); assay type: functional
[5] = A375 melanoma cell cytotoxicity, dose response, counter-screen for MITF inhibitor project, CellTiter-Glo luminescence, dry powder, set 6 (AID 624488); assay type: functional, cell-based; conditions: A-375
[6] = MITF Measured in Cell-Based System Using Plate Reader - 2084-01_Inhibitor_Dose_DryPowder_Activity_Set7.; assay type: functional
[7] = A375 melanoma cell cytotoxicity, dose response, counter-screen for MITF inhibitor project, CellTiter-Glo luminescence, dry powder, set 7 (AID 624490); assay type: functional, cell-based; conditions: A-375
[8] = MITF Orthogonal Assay: SK-MEL-5 CTG Assay Measured in Cell-Based System Using Plate Reader - 2084-02_Inhibitor_Dose_DryPowder_Activity_Set5.; assay type: functional
[9] = A375 melanoma cell viability loss, dose response, counter-screen for MITF inhibitor project, CellTiter-Glo luminescence, dry powder, set 4 (AID 624364); assay type: functional, cell-based; conditions: A-375;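 also: A375 melanoma cells are MITF independent so this is a counter screen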
[10] = MALME3 melanoma cell viability reduction, dose response, orthogonal assay for MITF inhibitor project, CellTiter-Glo luminescence, dry powder, set 5 (AID 651584); assay type: functional, cell-based; conditions: MALME-3
[11] = SK-MEL-5 parental line viability, dose response, MITF inhibitor project, cell-based, CellTiter-Glo, dry powder, set 6 (AID 624429); assay type: functional
[12] = MITF Measured in Cell-Based System Using Plate Reader - 2084-01_Inhibitor_Dose_DryPowder_Activity_Set6.; assay type: functional
[13] = molecular target: Glutathione-S-transferase (Schistosoma japonicum, UniProt Q26513); assay: biotin-GST/anti-GST TR-FRET signal inhibitors, dose response, artefact control for Vif-APOBEC3G degradation inhibitor project, biochemical (AID 1117362); assay type: functional
Chain of Glutathione-S-transferase (Q26513 whole entry): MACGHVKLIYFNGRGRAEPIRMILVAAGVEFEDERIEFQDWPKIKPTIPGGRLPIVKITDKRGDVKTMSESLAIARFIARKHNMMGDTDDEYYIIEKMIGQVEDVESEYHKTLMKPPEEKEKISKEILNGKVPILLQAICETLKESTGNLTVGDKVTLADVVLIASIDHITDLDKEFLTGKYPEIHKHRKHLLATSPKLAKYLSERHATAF

[14] = molecular target: NAD-dependent protein deacylase sirtuin-5, mitochondrial (Homo sapiens, UniProt Q9NXA8); assay: SIRT5 desuccinylase inhibitors, dose response, biochemical, fluorescence imaging, cherry-pick, set 5 (AID 720591);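 also: desuccinylation of succinyl peptide AMC substrate read as fluorescence after trypsin release; potency of inhibitors that lower fluorescence and may act on trypsin instead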
Chain of NAD-dependent protein deacylase sirtuin-5, mitochondrial (Q9NXA8 whole entry): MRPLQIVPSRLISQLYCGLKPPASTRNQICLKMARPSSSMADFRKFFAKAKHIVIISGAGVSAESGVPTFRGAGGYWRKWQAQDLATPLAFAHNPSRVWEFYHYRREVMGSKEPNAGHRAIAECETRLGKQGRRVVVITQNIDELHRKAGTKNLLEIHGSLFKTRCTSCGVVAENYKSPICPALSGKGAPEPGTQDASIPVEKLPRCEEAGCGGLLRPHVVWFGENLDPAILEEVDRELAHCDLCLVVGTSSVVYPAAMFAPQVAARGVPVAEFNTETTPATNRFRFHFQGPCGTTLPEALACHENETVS

[15] = cells
[16] = molecular target: T1, Zinc finger protein mex-5 (Caenorhabditis elegans, UniProt Q9XUB2); assay: MEX-5/TCR-2 RNA interaction inhibitors, dose response, biochemical, C. elegans, fluorescence polarization (AID 1960)
T1 sequence (Q9XUB2 whole entry): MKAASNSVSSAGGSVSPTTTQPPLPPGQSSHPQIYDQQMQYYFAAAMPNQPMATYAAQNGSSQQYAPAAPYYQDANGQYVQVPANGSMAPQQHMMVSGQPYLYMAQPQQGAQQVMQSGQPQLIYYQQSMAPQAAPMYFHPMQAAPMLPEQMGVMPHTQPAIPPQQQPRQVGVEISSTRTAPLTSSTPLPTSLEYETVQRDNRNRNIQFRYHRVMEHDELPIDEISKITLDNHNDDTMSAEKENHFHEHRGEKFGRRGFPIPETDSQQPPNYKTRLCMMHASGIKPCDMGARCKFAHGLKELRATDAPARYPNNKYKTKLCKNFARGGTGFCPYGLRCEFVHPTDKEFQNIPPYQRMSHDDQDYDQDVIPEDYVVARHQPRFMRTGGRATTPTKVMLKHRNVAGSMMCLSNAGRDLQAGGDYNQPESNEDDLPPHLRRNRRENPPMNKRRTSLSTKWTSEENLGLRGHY

[17] = molecular target: T2, High affinity choline transporter 1 (Homo sapiens, UniProt Q9GZV3); assay: CHT inhibitors, dose response, cell-based, 5-point CRC, membrane potential dye (AID 504840); assay type: functional
T2 sequence (Q9GZV3 whole entry): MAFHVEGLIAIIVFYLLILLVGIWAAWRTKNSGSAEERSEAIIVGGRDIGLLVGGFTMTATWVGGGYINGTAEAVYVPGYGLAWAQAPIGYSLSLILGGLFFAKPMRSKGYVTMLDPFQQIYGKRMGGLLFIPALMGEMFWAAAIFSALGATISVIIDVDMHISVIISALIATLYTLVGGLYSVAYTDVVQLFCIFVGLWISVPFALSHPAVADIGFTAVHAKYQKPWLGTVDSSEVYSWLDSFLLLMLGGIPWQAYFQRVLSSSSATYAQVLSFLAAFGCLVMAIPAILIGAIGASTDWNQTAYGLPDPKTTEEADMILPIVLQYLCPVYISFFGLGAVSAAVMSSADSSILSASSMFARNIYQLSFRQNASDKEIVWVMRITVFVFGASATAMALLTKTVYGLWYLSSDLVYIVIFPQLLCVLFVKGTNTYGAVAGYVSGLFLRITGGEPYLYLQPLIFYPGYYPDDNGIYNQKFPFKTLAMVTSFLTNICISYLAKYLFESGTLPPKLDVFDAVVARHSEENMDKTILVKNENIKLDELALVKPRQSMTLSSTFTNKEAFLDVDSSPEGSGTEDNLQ

[18] = molecular target: T3, RNA-binding protein pos-1 (Caenorhabditis elegans, UniProt G5EF15); assay: inhibitors of POS-1/mex-3 RNA binding, dose response, biochemical, fluorescence polarization (AID 1964);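 also: purified POS-1 fused to maltose binding protein made in E. coli; potency of compounds blocking POS-1 binding to fluorescent RNA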
T3 sequence (G5EF15 whole entry): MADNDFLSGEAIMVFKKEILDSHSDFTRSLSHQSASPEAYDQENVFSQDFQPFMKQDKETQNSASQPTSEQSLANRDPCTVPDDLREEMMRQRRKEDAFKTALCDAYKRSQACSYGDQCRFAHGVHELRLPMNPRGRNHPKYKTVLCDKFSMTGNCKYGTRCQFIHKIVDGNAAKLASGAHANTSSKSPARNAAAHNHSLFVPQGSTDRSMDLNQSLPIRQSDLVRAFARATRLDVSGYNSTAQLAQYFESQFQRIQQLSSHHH

Structure (SMILES): OC[C@@H]1Nc2ccc(-c3ccccc3)cc2[C@H]2[C@@H]1CCN2Cc1ccc(F)cc1
AC50 [1]: 47.6 µM (active)

Structure (SMILES): NC1=C(NS(=O)(=O)c2ccccc2)C(=O)c2ccccc2C1=O
AC50 [2]: 17.5 µM (active)
AC50 [3]: 22.6 µM (active)
AC50 [4]: 15.8 µM (active)
AC50 [5]: 54.6 µM (active)
AC50 [6]: 4.7 µM (active)
AC50 [7]: > 70 µM (inactive)
AC50 [8]: 16.1 µM (active)
AC50 [9]: > 70 µM (inactive)
AC50 [10]: 22.6 µM (active)
AC50 [11]: 16.1 µM (active)
AC50 [12]: 7 µM (active)

Structure (SMILES): COC(=O)/C(=N/Nc1ccccc1C)N1CCCc2ccccc21
IC50 [13]: 1.9 µM (active)

AC50 [14]: > 30 µM (inactive)
Structure (SMILES): COc1ccc(C)cc1NC(=O)CCN1CC(C)OC(C)C1 (stereo not drawn)

Structure (SMILES): CCn1c2ccccc2c(=O)c2ccccc21
AC50 [15]: 1.59 µM (active)
EC50 [16]: > 300 µM (not active)
IC50 [17]: 15.1 µM (active)
EC50 [18]: > 300 µM (not active)
